The nature of the series: In vitro drug-drug interaction studies of sartan and statin in dissolution media by UV/Visible spectrophotometry. Particulars: SGM and pH 4, 7.4, 9, 37° C., 2 hours; for interaction of losartan and atorvastatin (FIG. 7): LOS + ATR added together at 0 min; for interaction of valsartan and atorvastatin (FIG. 10): VAL + ATR added together at 0 min. It is filed as physicochemical. The protocol:
Interaction studies by UV/Visible spectrophotometry. In vitro interaction studies of antihypertensive drugs and antilipidemic agents were studied individually by using different kinds of dissolution media: SGM and media at pH 4, 7.4 and 9 as described in the experimental section.
In each set of experiments losartan or valsartan was initially added at 0 min to 500 mL dissolution medium SGM or media at pH 4, 7.4 and 9 already maintained at 37° C. The second drug, statin (ATOR, PRA or SIM) was added at the same time at zero mins. 5 mL samples were collected at regular intervals for 2 hours. The drug contents (losartan in presence of respective interacting drug, and valsartan in presence of respective interacting drug) were quantified spectrophotometrically at their respective λmax by employing simultaneous equations; FIGS. 7-12.
In FIG. 7, the drug contents (losartan in presence of respective interacting drug) were quantified spectrophotometrically at their respective λmax by employing simultaneous equations, that is, by using the molar absorptive value of the drug at a particular wavelength and a particular pH.
As the spectra of the two interacting drugs fused with each other, simultaneous methods were developed to determine losartan/valsartan and drugs of interacting classes along with each other. This technique enables one to quantitate the content of the two drugs co-existing in the same medium, without needing to separate them. To achieve this, molar absorptivity values of both losartan and the respective interacting drug were calculated at λmax of their own and at the λmax of each other using their calibration curves standards in all four pH medium.

From patent US11221321B2, “Liquid chromatographic method for the simultaneous analysis of antihypertensive and antilipidemic agents and interactions thereof” (Imam Abdulrahman Bin Faisal University, priority 2019, dated 2022) come the findings set out here.

Regarding `CC(C)c1c(C(=O)Nc2ccccc2)c(-c2ccccc2)c(-c2ccc(F)cc2)n1CC[C@@H](O)C[C@@H](O)CC(=O)O` [ATR, Atorvastatin], the “interaction of losartan and atorvastatin (FIG. 7)” value is listed as “have undergone interaction”; the “interaction of valsartan and atorvastatin (FIG. 10)” value was “may interact in the digestive tract”.

Consider `CCCCc1nc(Cl)c(CO)n1Cc1ccc(-c2ccccc2-c2nn[nH]n2)cc1` [LOS, Losartan], for which the “interaction of losartan and atorvastatin (FIG. 7)” value was “have undergone interaction”. In addition, under “LOS + PRA added together at 0 min”, the “interaction of losartan and pravastatin (FIG. 8)” value is listed as “may interact in the digestive tract”. For the same molecule, for the setting “LOS + SIM added together at 0 min”, the “interaction of losartan and simvastatin (FIG. 9)” value was “NOT available in their original form”.

As for `CCCCC(=O)N(Cc1ccc(-c2ccccc2-c2nnn[nH]2)cc1)[C@H](C(=O)O)C(C)C` [VAL, Valsartan], the “interaction of valsartan and atorvastatin (FIG. 10)” value is reported as “may interact in the digestive tract”. The “interaction of valsartan and pravastatin (FIG. 11)” value (VAL + PRA added together at 0 min) is “may interact in the digestive tract”. For the same molecule, under “VAL + SIM added together at 0 min”, the “interaction of valsartan and simvastatin (FIG. 12)” value is “may interact in the digestive tract”.
